This is an account of results in ChEMBL document CHEMBL3352290, “Interactions with polynucleotides and antitumor activity of amidino and imidazolinyl substituted 2-phenylbenzothiazole mesylates” (Eur J Med Chem, 2014).

Data set [1] can be described thus: Antiproliferative activity against human H460 cells assessed as growth inhibition after 72 hrs by MTT assay. In kind it is functional. The conditions noted are these: NCI-H460, 72 h. On the technique in general: Tetrazolium dyes change colour on reduction, which living cells bring about.
Data set [2] deals with HeLa. Briefly: Antiproliferative activity against human HeLa cells assessed as growth inhibition after 72 hrs by MTT assay. In kind it is functional.
Data set [3] can be described thus: Solubility of the compound in water at 22 degC. The format is physicochemical.
Data set [4] has as its system MCF7. Briefly: Antiproliferative activity against human MCF7 cells assessed as growth inhibition after 72 hrs by MTT assay. The format is functional. The note with it: MCF7, 72 h.
The subject of data set [5] is SW-620. Kind of data set: Antiproliferative activity against human SW620 cells assessed as growth inhibition after 72 hrs by MTT assay. The note with it: SW-620, 72 h. In kind it is functional.
Data set [6] in a line: Antiproliferative activity against human MOLT4 cells assessed as growth inhibition after 72 hrs by MTT assay. In kind it is functional. The conditions noted are these: MOLT-4, 72 h.
The nature of data set [7]: Antiproliferative activity against human MIAPaCa2 cells assessed as growth inhibition after 72 hrs by MTT assay. The format is functional. The note with it: MIA PaCa-2, 72 h.
Data set [8] deals with Mus musculus. Kind of data set: Acute oral toxicity in po dosed BALB/C mouse after 24 hrs. The format is organism-based. Also noted: unit not given here. The note with it: in vivo.
Data set [9] in a line: Antiproliferative activity against human HCT116 cells assessed as growth inhibition after 72 hrs by MTT assay. The format is functional. The conditions noted are these: HCT-116, 72 h.
Data set [10] is described as follows: Binding affinity to poly(dA-dT)2 (unknown origin) assessed as binding constant at pH7 by UV/vis titration.
The nature of data set [11]: Binding affinity to poly A-poly U (unknown origin) assessed as change in melting temperature at pH7.
Data set [12] in a line: Binding affinity to poly(dA-dT)2 (unknown origin) assessed as change in melting temperature at pH7.
The nature of data set [13]: Binding affinity to poly(dA-dT)2 (unknown origin) assessed as spectral changes at pH7 by UV/vis spectra.
A short description of data set [14]: Binding affinity to poly A-poly U (unknown origin) assessed as binding constant at pH7 by UV/vis titration.
Data set [15] is described as follows: Binding affinity to poly A (unknown origin) assessed as spectral changes by UV/vis spectra.
A short description of data set [16]: Binding affinity to poly A (unknown origin) assessed as binding constant at pH7 by UV/vis titration.
Data set [17] can be described thus: Binding affinity to poly G (unknown origin) assessed as binding constant at pH7 by UV/vis titration.
For data set [18], the system named is Calf thymus DNA. Briefly: Binding affinity to calf thymus DNA assessed as change in melting temperature at pH7. In kind it is nucleic-acid assay. The note with it: Bos taurus.
Data set [19] has as its system Calf thymus DNA. Briefly: Binding affinity to calf thymus DNA assessed as binding constant at pH7 by UV/vis titration. The format is nucleic-acid assay. The note with it: Bos taurus.
Data set [20] can be described thus: Binding affinity to poly U (unknown origin) assessed as binding constant at pH7 by UV/vis titration.
Data set [21] in a line: Binding affinity to poly A-poly U (unknown origin) assessed as spectral changes at pH7 by UV/vis spectra.
A short description of data set [22]: Binding affinity to poly C (unknown origin) assessed as binding constant at pH7 by UV/vis titration.
Data set [23] in a line: Binding affinity to poly G-poly C (unknown origin) assessed as binding constant at pH7 by UV/vis titration.
Data set [24] is described as follows: Binding affinity to poly G (unknown origin) assessed as spectral changes by UV/vis spectra.
Data set [25] can be described thus: Binding affinity to poly C (unknown origin) assessed as spectral changes by UV/vis spectra.
A short description of data set [26]: Binding affinity to poly U (unknown origin) assessed as spectral changes by UV/vis spectra.
Data set [27] can be described thus: Binding affinity to poly G-poly C (unknown origin) assessed as spectral changes at pH7 by UV/vis spectra.
For data set [28], the system named is Calf thymus DNA. Kind of data set: Binding affinity to calf thymus DNA assessed as spectral changes at pH7 by UV/vis spectra. The format is nucleic-acid assay. The note with it: Bos taurus.

The GI50 is the concentration at which growth is held to half of that of the control. A word on the solubility: it is the dissolved amount per volume that the medium holds. In the case of `CS(=O)(=O)O.N=C(N)c1ccc2nc(-c3ccc(N)cc3)sc2c1.O`, the 50% growth inhibitory concentration (GI50) was determined as 3200 nM in data set [1]; 17500 nM in data set [2]; 15100 nM in data set [4]; 4700 nM in data set [5]; 2200 nM in data set [6]; 8500 nM in data set [7]. Also, in data set [9], the GI50 amounted to 6100 nM. For the same molecule, the solubility in data set [3] amounted to 1100 µg/mL. Besides, the LD50 in data set [8] is on record as 26.1.

`Cl.N=C(N)c1ccc2nc(-c3ccc(N)cc3)sc2c1.O`: the solubility in [3] stood at 3300 µg/mL.

Molecule `Cl.Nc1ccc2nc(-c3ccc(C4=NCCN4)cc3)sc2c1.O` yielded a solubility in data set [3] of 600 µg/mL.

One may read the ΔTm as the change in melting temperature against a reference sample. For the molecule `N=C(N)c1ccc(-c2nc3ccc(N)cc3s2)cc1`, the log Ks in [10] amounted to 5.04; in data set [14], 4.5; in data set [16] it was 3.99; in data set [17] it was 4.6; in [19], 4.48; in [20], 5.15. For the same molecule, the log Ks in data set [22] worked out at 4.19; in data set [23] it was 4.4. Further, the ΔTm in data set [11] is 1 °C; in data set [12], 2 °C; in data set [18], 0 °C. The Activity amounted to 37.5% in data set [13]; 24.3% in [15]; 45.5% in [21]; 33.5% in [24]; 13% in [25]; 14.7% in data set [26]. Moreover, the Activity in [27] is 25.3%; in data set [28], 42.2%.

On to `Cl.Nc1ccc(-c2nc3ccc(C4=NCCN4)cc3s2)cc1.O`, for which the concentration in solution in [3] (solubility) was 200 µg/mL.

`Nc1ccc(-c2nc3ccc(C4=NCCN4)cc3s2)cc1`: the log Ks in data set [10] stood at 5.41; in data set [14], 5.44; in data set [16], 5.6; in [17], 6.46; in data set [19], 5.23; in [20], 4.77. In addition, the values for the log Ks in [22] and in data set [23] were 5.11 and 4.89, respectively. For the same molecule, the values for the ΔTm in data set [11], in data set [12] and in data set [18] were 3.9 °C, 2.7 °C and 0.7 °C, respectively. Also, the Activity in data set [13] was 42.5%; in data set [15] it was 22.2%; in data set [21], 55.5%; in data set [24] it was 30.8%; in data set [25], 16.3%; in [26], 18.3%. Also, the Activity in data set [27] worked out at 30%; in data set [28], 37.1%.

Turning to `N=C(N)c1ccc2nc(-c3ccc(N)cc3)sc2c1`, the log Ks is 5.09 in [10]; 4.55 in [14]; 4.3 in [16]; 4.85 in [17]; 4.46 in data set [19]; 4.81 in [20]. The log Ks in data set [22] was found to be 4.57; in data set [23], 4.5. The results for the ΔTm in data set [11], in data set [12] and in data set [18] were 1.3 °C, 2.8 °C and 0.7 °C, respectively. In addition, the Activity was determined as 39.8% in data set [13]; 23% in data set [15]; 71.6% in data set [21]; 23.4% in data set [24]; 13.6% in data set [25]; 16.3% in [26]. For the same molecule, the Activity came out at 20.3% in data set [27] and 45.6% in data set [28].

As to `Cl.N=C(N)c1ccc(-c2nc3ccc(N)cc3s2)cc1.O`, the solubility in [3] was determined as 700 µg/mL.

Consider `Nc1ccc2nc(-c3ccc(C4=NCCN4)cc3)sc2c1`, for which the log Ks amounted to 5.19 in data set [10]; 4.94 in [14]; 4.83 in data set [16]; 5.61 in [17]; 4.77 in data set [19]; 4.43 in [20]. The log Ks worked out at 5.23 in [22] and 5.1 in [23]. The ΔTm amounted to 1.3 °C in [11], 2.1 °C in data set [12] and 0 °C in [18]. Also, the Activity in [13] came to 41.1%; in [15], 29.5%; in data set [21], 53.1%; in data set [24], 28.6%; in data set [25] it was 16.5%; in data set [26], 17.5%. Besides, the Activity in [27] is 23.9%; in data set [28], 38.1%.

Take `CS(=O)(=O)O.N=C(N)c1ccc(-c2nc3ccc(N)cc3s2)cc1`: the 50% growth inhibitory concentration (GI50) in data set [1] turned out to be 300 nM; in [2] it was 21000 nM; in data set [4], 1800 nM; in [5], 3500 nM; in data set [6], 2800 nM; in [7], 9700 nM. Further, the GI50 in [9] stood at 1600 nM. Also, the solubility in data set [3] turned out to be 12500 µg/mL. Further, the LD50 in [8] is on record as 31.5.

Consider `CS(=O)(=O)O.Nc1ccc2nc(-c3ccc(C4=NCCN4)cc3)sc2c1`, for which the 50% growth inhibitory concentration (GI50) was 400 nM in data set [1]; 17900 nM in data set [2]; 6700 nM in [4]; 1200 nM in [5]; 2300 nM in [6]; 1100 nM in [7]. In addition, in data set [9], the GI50 amounted to 1400 nM. In data set [3], this molecule had a solubility of 145000 µg/mL. The same molecule had an LD50 in [8] of 74.7.

Turning to `CS(=O)(=O)O.Nc1ccc(-c2nc3ccc(C4=NCCN4)cc3s2)cc1`, the GI50 in data set [1] turned out to be 500 nM; in data set [2] it was 16600 nM; in [4], 11300 nM; in [5] it was 1100 nM; in data set [6], 3200 nM; in data set [7], 1400 nM. In data set [9], the GI50 is 1400 nM. For the same molecule, the concentration in solution in [3] (solubility) was 130000 µg/mL. The LD50 in data set [8] is 175.
